These results are taken from patent publication US20090035298A1 (priority 2007, published 2009).

Values joined by “and” are separate entries in the source; they are usually repeats but may differ in a detail not shown here. Identical values can stand only once. Like-named read-outs stand apart in the source and are kept apart here. Where no end group is shown, it is not given here.

The subject of test [1] is hippocampal ISF Aβ levels. It is filed as in vivo, Tg2576 mice. To be noted: for Effect on ISF Aβ levels versus vehicle treated mice: 50 mg/kg intraperitoneal, n=8 per group; for Effect on ISF Aβ levels versus vehicle treated mice / ISF Aβ levels, % of baseline by 12 hours: 3-4 month old Tg2576 mice; for ISF Aβ levels, % of baseline by 12 hours: n=5.
Test [2] deals with neuronal activity in the hippocampus. More on the design: species or system Tg2576 mice. The note with it: mouse, in vivo.

On to `C[C@]12C[C@H](O)[C@H]3[C@@H](CCC4=CC(=O)CC[C@@]43C)[C@@H]1CC[C@@H]2C(=O)CO` [CORT, Corticosterone], for which the results for the “Effect on ISF Aβ levels versus vehicle treated mice” value in test [1] and in test [1] (listed as Corticosterone) were “no difference” and “did not alter”, respectively.

As for `NC1=N[C@H](O)[C@H]2[C@H]3O[C@]4(O)O[C@@H]([C@@H](O)[C@@]2(N1)[C@@H]4O)[C@]3(O)CO` [TTX, Tetrodotoxin], in test [1] (mouse, in vivo), the “Change in ISF Aβ levels on 3 hours restraint stress given 8 hours after TTX treatment, compared to TTX-alone controls” value is given as “no significant change”; the “Decrease of ISF Aβ levels over 16 hours compared to baseline” value is recorded as roughly 60%; the “ISF Aβ levels for an additional 12 hours in the presence of TTX” value is on record as “remained low”; the “ISF Aβ levels, % of baseline by 17 hours from drug treatment” value stood at 58.5%. Besides, the “Effect on neuronal activity in the hippocampus” value in test [2] was “almost completely blocked”.

For the molecule “CRF (SEEPPISLDLTFHLLREVLEMARAEQLAQQAHSNRKLMEII; ends and bridges not checked; UniProt P06850 154-194, looked up)”, the “ISF Aβ levels, % of baseline by 12 hours” value in test [1] (100 nM by reverse microdialysis in hippocampus) is 138.3±7.027% and 138.3%; in test [1] (200 nM by reverse microdialysis in hippocampus), 171.9±17.83% and 171.9%. The “Time of increase of ISF Aβ levels after drug infusion” value in test [1] (100 nM in the microdialysis fluid) is 3 h; in test [1] (200 nM in the microdialysis fluid) it was “immediately”. The “Dose dependence of increase in ISF Aβ levels” value in test [1] (100 and 200 nM by reverse microdialysis) is “dose-dependent manner”.
